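Where inhibition never reached the appropriate level, the endpoint shown equals the highest concentration tested. Otherwise, values were interpolated linearly from a five-concentration, 48-hour dose response in 96-well plates. Here, GI50 denotes the concentration required for 50% inhibition of growth. Definition used: TGI = concentration required for complete inhibition of growth.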
Legend:
Assay in all cases: NCI-60 cell line screen, 48 h
CAKI-1 renal = tested on: CAKI-1 renal
DU-145 prostate = tested on: DU-145 prostate
EKVX NSCLC = tested on: EKVX NSCLC
HCC-2998 colon = tested on: HCC-2998 colon
HOP-62 NSCLC = tested on: HOP-62 NSCLC
K-562 leukemia = tested on: K-562 leukemia
NCI-H460 lung = tested on: NCI-H460 lung
OVCAR-4 ovarian = tested on: OVCAR-4 ovarian
RPMI-8226 leukemia = tested on: RPMI-8226 leukemia
SK-MEL-5 melanoma = tested on: SK-MEL-5 melanoma
SK-OV-3 ovarian = tested on: SK-OV-3 ovarian
SR leukemia = tested on: SR leukemia

Structure (SMILES) | TGI (CAKI-1 renal) | TGI (DU-145 prostate) | TGI (EKVX NSCLC) | TGI (HCC-2998 colon) | TGI (HOP-62 NSCLC) | TGI (K-562 leukemia) | TGI (NCI-H460 lung) | TGI (OVCAR-4 ovarian) | TGI (RPMI-8226 leukemia) | TGI (SK-MEL-5 melanoma) | TGI (SK-OV-3 ovarian) | TGI (SR leukemia) | GI50 (CAKI-1 renal) | GI50 (DU-145 prostate) | GI50 (EKVX NSCLC) | GI50 (K-562 leukemia) | GI50 (NCI-H460 lung) | GI50 (OVCAR-4 ovarian) | GI50 (SK-OV-3 ovarian) | GI50 (SR leukemia)
CN(C)CCCSc1nc2ccccc2[nH]1 | > 100 µM | > 100 µM | > 100 µM | > 100 µM | > 100 µM | > 100 µM | > 100 µM | > 100 µM | > 100 µM | > 100 µM | > 100 µM | > 100 µM | – | – | – | – | – | – | – | –
CCOC(=O)c1cnc2oc3ccc(O)cc3c2c1C | > 100 µM | > 100 µM | > 100 µM | > 100 µM | – | > 100 µM | > 100 µM | > 100 µM | > 100 µM | > 100 µM | > 100 µM | > 100 µM | – | – | – | – | – | – | – | –
COc1ccc2[nH]cc(CCNC(=O)[C@H](Cc3ccccc3)NC(=O)[C@@H](NCC(F)(F)F)C(C)C)c2c1 | – | 37.7 µM | 44 µM | – | 36.2 µM | > 100 µM | 46.3 µM | 32.3 µM | 23.8 µM | – | 33.3 µM | > 100 µM | – | – | – | – | – | – | – | –
CCCCCCCCCCCCCCCCCCOc1ccccc1CC(=O)OCC[N+]1(C)CCCCC1 | 4.87 µM | 9.61 µM | 17.5 µM | – | – | 10.1 µM | 5.43 µM | 10.5 µM | – | – | 38.2 µM | 4.97 µM | 1.74 µM | 3.02 µM | 2.65 µM | 2.83 µM | 2.34 µM | 2.81 µM | 18.2 µM | 1.93 µM
CN(CCCCCl)P(=O)(OCc1ccc([N+](=O)[O-])o1)OC[C@H]1O[C@@H](n2cc(F)c(=O)[nH]c2=O)C[C@@H]1O (stereo partly specified) | – | 40.2 µM | > 100 µM | – | 25.6 µM | > 59.4 µM | 45.5 µM | 33.5 µM | 38.4 µM | 12.9 µM | 34.1 µM | 24.2 µM | – | – | – | – | – | – | – | –
CN1CCOC(c2ccc(Cl)cc2)O1 (stereo unspecified) | > 100 µM | – | > 100 µM | > 100 µM | > 100 µM | > 100 µM | > 100 µM | > 100 µM | – | > 100 µM | > 100 µM | > 100 µM | – | – | – | – | – | – | – | –
CC(CCN)(CCN)[N+](=O)[O-] | > 100 µM | > 100 µM | > 100 µM | – | > 100 µM | > 100 µM | > 100 µM | > 100 µM | > 100 µM | > 100 µM | > 100 µM | > 100 µM | – | – | – | – | – | – | – | –
COc1cc2c(c(O)c1OC)-c1c(cc(OC)c(OC)c1OC)CC(C)C(C)C2 (stereo unspecified) | > 100 µM | > 100 µM | > 100 µM | > 100 µM | > 100 µM | > 100 µM | > 100 µM | > 100 µM | > 100 µM | > 100 µM | > 100 µM | 57 µM | – | – | – | – | – | – | – | –
C1=NCCN2CCN(CCN=Cc3ccc(cc3)OCc3cccc(n3)COc3ccc1cc3)CC2 | – | > 50 µM | > 50 µM | – | > 50 µM | > 50 µM | > 50 µM | > 50 µM | > 50 µM | – | > 50 µM | > 50 µM | – | – | – | – | – | – | – | –
C=C1c2ccccc2C(=O)c2c1c1c(C(=O)OC)c(O)ccc1n2Cc1ccccc1 | 1.71 µM | 0.745 µM | 2.34 µM | – | 1.53 µM | 1.55 µM | 2.34 µM | 1.77 µM | 0.53 µM | 1.97 µM | 1.35 µM | – | – | – | – | – | – | – | – | –
O=C(O)c1cc([N+](=O)[O-])cc2c(=O)c3cnccc3[nH]c12 | > 100 µM | > 100 µM | – | > 100 µM | > 100 µM | > 100 µM | > 100 µM | > 100 µM | > 100 µM | > 100 µM | > 100 µM | > 100 µM | – | – | – | – | – | – | – | –
COC1=C(OC)C(=O)C(Cc2c(Cl)nc3sc(C)cn23)=C(C)C1=O | 72.7 µM | 61 µM | 35.6 µM | 39 µM | 36 µM | 45.5 µM | 37.8 µM | 20.6 µM | 31.8 µM | 23.9 µM | 32 µM | 51 µM | – | – | – | – | – | – | – | –
O=C([O-])C[n+]1ccccc1 | > 100 µM | > 100 µM | > 100 µM | – | > 100 µM | > 100 µM | > 100 µM | > 100 µM | > 100 µM | > 100 µM | > 100 µM | – | – | – | – | – | – | – | – | –
Cn1c2ccccc2n2c(N=O)c(-c3ccccc3)nc12 | > 100 µM | > 100 µM | > 100 µM | 28.3 µM | 27.6 µM | > 100 µM | 48.3 µM | > 100 µM | > 100 µM | 34.1 µM | > 100 µM | > 100 µM | – | – | – | – | – | – | – | –
Nc1ncnc2c1ncn2C=C=CCO | > 100 µM | > 100 µM | – | > 100 µM | > 100 µM | > 100 µM | > 100 µM | > 100 µM | > 100 µM | > 100 µM | – | > 100 µM | – | – | – | – | – | – | – | –
C[C@]12C=CC(=O)C=C1CC[C@@H]1[C@@H]2CC[C@]2(C)OC(=O)CC[C@@H]12 | > 404 µM | > 500 µM | > 500 µM | > 409 µM | > 471 µM | > 500 µM | > 500 µM | > 500 µM | > 500 µM | > 477 µM | > 500 µM | > 489 µM | – | – | – | – | – | – | – | –
Cc1ccc(S(=O)(=O)n2cc(-c3cc(C(F)(F)F)ccn3)c3cc(Br)ccc32)cc1 | 38.6 µM | > 100 µM | > 100 µM | 62.6 µM | 29.5 µM | > 100 µM | > 100 µM | 29.7 µM | > 100 µM | 82.9 µM | 35.1 µM | > 100 µM | – | – | – | – | – | – | – | –
CN1CCc2[nH]c3ccccc3c2C1 | > 100 µM | – | > 100 µM | > 100 µM | > 100 µM | > 100 µM | > 100 µM | > 100 µM | > 100 µM | > 100 µM | > 100 µM | – | – | – | – | – | – | – | – | –
CCOc1ccc(NC(=O)C(=O)CC(=O)c2sc(NNC(C)=O)nc2C)cc1 | > 100 µM | – | > 100 µM | > 100 µM | > 100 µM | > 100 µM | > 100 µM | > 100 µM | > 100 µM | > 100 µM | > 100 µM | > 100 µM | – | – | – | – | – | – | – | –
O=C(Nc1ccc(Cl)cc1)c1cc2cc(N=Nc3ccccc3Cl)ccc2oc1=O | > 100 µM | – | 57.5 µM | 41.2 µM | 61.9 µM | 23.6 µM | > 100 µM | > 100 µM | 30.3 µM | 61.9 µM | 84 µM | 34.9 µM | – | – | – | – | – | – | – | –

— PubChem BioAssay (NCI)
